Test results taken from patent US20090311237A1, “Combination therapy using a soluble hyaluronidase and a bisphosphonate” (priority 2008, published 2009).
Read-outs that look alike come from different tables or passages of the source.

Assay: Phase 1 Stage 1 clinical pharmacokinetics of SC ZA co-administered with rHuPH20
Type: in vivo, human
Conditions: human, serum, sc, serum; for concentration at 6 h: 6 h post infusion; for concentration at 8 h: 8 h post infusion; for concentration at 12 h: 12 h post infusion; for concentration at 0 h: 0 h post infusion; for concentration at 10 min: 10 min post infusion; for concentration at 0.5 h: 0.5 h post infusion; for concentration at 1 h: 1 h post infusion; for concentration at 2 h: 2 h post infusion; for concentration at 4 h: 4 h post infusion; for concentration at 24 h: 24 h post infusion; for concentration at 48 h: 48 h post infusion
Protocol: A pharmacokinetic study of zoledronic acid (ZA) co-administered with rHuPH20 in human subjects was conducted. The primary objective of the study was to determine the bioavailability of zoledronic acid dosed via subcutaneous (SC) co-administration with human recombinant hyaluronidase PH20 (rHuPH20). […] The patients were administered the prescribed dosage formulations as follows: Cohorts 1-5 were administered a single subcutaneous infusion in a dosage volume of 100 ml at a rate of 3 mL/min. […] The dosing solution is administered via needle or catheter into the SC space of the left anterior thigh (midway between the anterior iliac crest and the cephalad border of the patella). For cohorts 1-5, the dosing solutions were administered by a controlled rate infusion pump at approximately 3 mL/minute. […] The dosing solutions were administered by syringe push bolus injection. […] Serum concentration of ZA was determined using a qualified LC-MS-MS assay after derivatization with diazomethane (Zhu, L S et al. (2006) Rapid Commun. […] The assay range was from 2.0 to 400 ng/mL with a lower limit of quantitation (LLOQ) at 2.0 ng/mL. […] Non-compartmental analysis was used for derivation of primary and secondary pharmacokinetic (PK) parameters. […] Summary statistics (mean, standard deviation, and median) were calculated using JMP or Microsoft Excel.

[1] = ZA 0.5 mg SC infusion + 24000 Units rHuPH20, n=3, read-out: Median Conc.
[2] = ZA 0.5 mg SC infusion + 24000 Units rHuPH20, individual subjects, read-out: Zoledronic Acid Concentration
[3] = ZA 0.5 mg SC infusion + 24000 Units rHuPH20, n=3, read-out: Mean Conc.
[4] = ZA 1 mg SC infusion + 24000 Units rHuPH20, individual subjects, read-out: Zoledronic Acid Concentration
[5] = ZA 1 mg SC infusion + 24000 Units rHuPH20, n=3, read-out: Mean Conc.
[6] = ZA 1 mg SC infusion + 24000 Units rHuPH20, n=3, read-out: Median Conc.
[7] = ZA 2 mg SC infusion + 24000 Units rHuPH20, individual subjects, read-out: Zoledronic Acid Concentration
[8] = ZA 2 mg SC infusion + 24000 Units rHuPH20, n=3, read-out: Mean Conc.
[9] = ZA 2 mg SC infusion + 24000 Units rHuPH20, n=3, read-out: Median Conc.
[10] = ZA 5 mg SC infusion + 24000 Units rHuPH20, n=3, read-out: Mean Conc.
[11] = ZA 5 mg SC infusion + 24000 Units rHuPH20, n=3, read-out: Median Conc.
[12] = ZA 5 mg SC infusion + 24000 Units rHuPH20, individual subjects, read-out: Zoledronic Acid Concentration

O=P(O)(O)C(O)(Cn1ccnc1)P(=O)(O)O [ZA, 1-hydroxy-2-(1H-imidazol-1-yl)ethylidene-1,1-bisphosphonic acid]
concentration at 6 h [1]: 2.53 ng/mL
concentration at 8 h [2]: 1.19 ng/mL
concentration at 8 h [3]: 1.32 ng/mL
concentration at 8 h [1]: 1.34 ng/mL
concentration at 12 h [2]: 0.52 ng/mL
concentration at 12 h [3]: 0.54 ng/mL
concentration at 12 h [1]: 0.55 ng/mL
concentration at 0 h [4]: 28.4 ng/mL
concentration at 0 h [5]: 20.5 ng/mL
concentration at 0 h [6]: 17.9 ng/mL
concentration at 10 min [4]: 32.1 ng/mL
concentration at 10 min [5]: 27.2 ng/mL
concentration at 10 min [6]: 25 ng/mL
concentration at 0.5 h [4]: 33.4 ng/mL
concentration at 0.5 h [5]: 28.1 ng/mL
concentration at 0.5 h [6]: 28 ng/mL
concentration at 1 h [4]: 29.9 ng/mL
concentration at 1 h [5]: 25.5 ng/mL
concentration at 1 h [6]: 27.2 ng/mL
concentration at 2 h [4]: 24 ng/mL
concentration at 2 h [5]: 19.6 ng/mL
concentration at 2 h [6]: 17.7 ng/mL
concentration at 4 h [4]: 13.3 ng/mL
concentration at 4 h [5]: 10.3 ng/mL
concentration at 4 h [6]: 10.2 ng/mL
concentration at 6 h [4]: 5.48 ng/mL
concentration at 6 h [5]: 4.9 ng/mL
concentration at 6 h [6]: 5.47 ng/mL
concentration at 8 h [4]: 2.44 ng/mL
concentration at 8 h [5]: 2.69 ng/mL
concentration at 8 h [6]: 2.46 ng/mL
concentration at 12 h [4]: 1.02 ng/mL
concentration at 12 h [5]: 1.09 ng/mL
concentration at 12 h [6]: 1.02 ng/mL
concentration at 24 h [4]: 0.56 ng/mL
concentration at 24 h [5]: 0.52 ng/mL
concentration at 24 h [6]: 0.51 ng/mL
concentration at 0 h [7]: 33.3 ng/mL
concentration at 0 h [8]: 37.9 ng/mL
concentration at 0 h [9]: 39.6 ng/mL
concentration at 10 min [7]: 52.5 ng/mL
concentration at 10 min [8]: 48.3 ng/mL
concentration at 10 min [9]: 46.3 ng/mL
concentration at 0.5 h [7]: 59.8 ng/mL
concentration at 0.5 h [8]: 51.9 ng/mL
concentration at 0.5 h [9]: 48.6 ng/mL
concentration at 1 h [7]: 57.7 ng/mL
concentration at 1 h [8]: 56.5 ng/mL
concentration at 1 h [9]: 57.7 ng/mL
concentration at 2 h [7]: 42.5 ng/mL
concentration at 2 h [8]: 41.6 ng/mL
concentration at 2 h [9]: 42.2 ng/mL
concentration at 4 h [7]: 17.5 ng/mL
concentration at 4 h [8]: 20.3 ng/mL
concentration at 4 h [9]: 20.3 ng/mL
concentration at 6 h [7]: 6.43 ng/mL
concentration at 6 h [8]: 7.69 ng/mL
concentration at 6 h [9]: 7.71 ng/mL
concentration at 8 h [7]: 3.15 ng/mL
concentration at 8 h [8]: 3.77 ng/mL
concentration at 8 h [9]: 3.34 ng/mL
concentration at 12 h [7]: 1.5 ng/mL
concentration at 12 h [8]: 1.74 ng/mL
concentration at 12 h [9]: 1.64 ng/mL
concentration at 24 h [7]: 0.78 ng/mL
concentration at 24 h [8]: 0.87 ng/mL
concentration at 24 h [9]: 0.85 ng/mL
concentration at 48 h [7]: 0.62 ng/mL
concentration at 48 h [8]: 0.21 ng/mL
concentration at 0 h [10]: 88.6 ng/mL
concentration at 0 h [11]: 82.3 ng/mL
concentration at 10 min [12]: 121 ng/mL
concentration at 10 min [10]: 110 ng/mL
concentration at 10 min [11]: 121 ng/mL
concentration at 0.5 h [12]: 130 ng/mL
concentration at 0.5 h [10]: 125 ng/mL
concentration at 0.5 h [11]: 130 ng/mL
concentration at 1 h [12]: 124 ng/mL
concentration at 1 h [10]: 118 ng/mL
concentration at 1 h [11]: 116 ng/mL
concentration at 2 h [12]: 83.5 ng/mL
concentration at 2 h [10]: 86.6 ng/mL
concentration at 2 h [11]: 86.5 ng/mL
concentration at 4 h [12]: 45.6 ng/mL
concentration at 4 h [10]: 50 ng/mL
concentration at 4 h [11]: 45.6 ng/mL
concentration at 6 h [12]: 20.3 ng/mL
concentration at 6 h [10]: 23.5 ng/mL
